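Cultured in 96-well plates, cells were exposed to test compound for 48 hours across five concentrations. TGI denotes the concentration required for complete inhibition of growth.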 A value given as a limit tells only on which side of the number the result lay.

Among the test systems are 786-0 renal; CCRF-CEM leukemia; DLD-1 colon; EKVX NSCLC; HOP-92 NSCLC; M19-MEL melanoma; MOLT-4 leukemia; NCI-H226 lung; NCI-H23 lung; SNB-19 CNS; UO-31 renal; HCT-15 colon; IGROV1 ovarian; DU-145 prostate; MDA-N.
Common to all, as to experiment: NCI tumour cell line growth inhibition, 48 h

For the compound `CCN(CC)CCCCC1CCN(CC(=O)N2c3ccccc3NC(=O)c3ccccc32)CC1`, the TGI in the assay on 786-0 renal, with CCRF-CEM leukemia, in the assay on DLD-1 colon, in the assay on EKVX NSCLC, in the assay on HOP-92 NSCLC and in the assay on M19-MEL melanoma was more than 100 µM each time. The TGI with MOLT-4 leukemia, with NCI-H226 lung, in the assay on NCI-H23 lung, with SNB-19 CNS and with UO-31 renal was more than 100 µM each time.
On to `Cc1ccc(S(=O)(=O)N/N=C2\C(=O)C3CC2C(Cl)C3Cl)cc1` (stereo not drawn), for which the TGI with 786-0 renal, with CCRF-CEM leukemia, with DLD-1 colon, in the assay with HCT-15 colon, in the assay with HOP-92 NSCLC and in the assay on IGROV1 ovarian was more than 100 µM throughout. The TGI in the assay with MOLT-4 leukemia, in the assay on NCI-H226 lung, in the assay with NCI-H23 lung, in the assay with SNB-19 CNS and in the assay with UO-31 renal was more than 100 µM in each case.
Consider `CCOc1ccc(NCC(=O)N2CC(=O)Nc3ccccc32)cc1`, for which the TGI in the assay on 786-0 renal, in the assay on CCRF-CEM leukemia, in the assay with DLD-1 colon, in the assay on EKVX NSCLC, in the assay on HCT-15 colon and with HOP-92 NSCLC was more than 100 µM throughout. The TGI in the assay with M19-MEL melanoma, in the assay with MOLT-4 leukemia, in the assay with NCI-H226 lung, with NCI-H23 lung, in the assay with SNB-19 CNS and in the assay on UO-31 renal was more than 100 µM throughout.
Regarding `CCN=C1NN=C(c2ccccc2)c2cc(Cl)ccc2N1`, the TGI with 786-0 renal is 34.1 µM; with CCRF-CEM leukemia, more than 100 µM; in the assay with EKVX NSCLC, 92.7 µM; in the assay with HCT-15 colon it was 48.6 µM; in the assay with HOP-92 NSCLC, 47.5 µM; in the assay on IGROV1 ovarian, 70 µM. The TGI in the assay on M19-MEL melanoma was 39.5 µM; in the assay on MOLT-4 leukemia it was 94.8 µM; in the assay with NCI-H226 lung, 43.3 µM; in the assay on NCI-H23 lung it was 64.6 µM; in the assay with SNB-19 CNS, more than 100 µM; in the assay with UO-31 renal it was 70.2 µM.
On to `O=C1/C(=C/c2cccc([N+](=O)[O-])c2)COc2ccccc21`, for which the TGI was 3.16 µM in the assay with 786-0 renal; 9.56 µM with DLD-1 colon; more than 92.2 µM with EKVX NSCLC; 3.11 µM in the assay on HCT-15 colon; more than 72.8 µM in the assay with HOP-92 NSCLC; more than 19.9 µM in the assay on IGROV1 ovarian. Further, the TGI with M19-MEL melanoma worked out at 5.49 µM; with MOLT-4 leukemia it was 6.62 µM; in the assay on NCI-H226 lung, 22.6 µM; with NCI-H23 lung, 18.2 µM; with SNB-19 CNS, 9.07 µM; with UO-31 renal, 67.8 µM.
Take `CC(=O)OC1[C@H]2c3cc4c(cc3CN3CCC(C[C@@H]1OC(C)=O)C23)OCO4` (stereo partly drawn): the TGI with 786-0 renal, in the assay with CCRF-CEM leukemia, with DLD-1 colon, in the assay on EKVX NSCLC, in the assay on HCT-15 colon and with IGROV1 ovarian was more than 75 µM throughout. In addition, the TGI in the assay with M19-MEL melanoma is more than 75 µM; in the assay on MOLT-4 leukemia it was more than 75 µM; in the assay on NCI-H226 lung, 59.9 µM; with NCI-H23 lung, more than 75 µM; with SNB-19 CNS it was more than 75 µM; in the assay on UO-31 renal, more than 75 µM.
For the compound `COC(=O)c1c/c(=N\NC(=O)CC(=O)Nc2ccccc2Cl)c2ccccc2o1`, the TGI in the assay with 786-0 renal, in the assay on DLD-1 colon, in the assay with EKVX NSCLC, with HCT-15 colon, in the assay on IGROV1 ovarian and in the assay with MOLT-4 leukemia was more than 100 µM in each case. For the same compound, the TGI with NCI-H226 lung, with NCI-H23 lung, with SNB-19 CNS and with UO-31 renal was more than 100 µM throughout.
Regarding `C/C(C=O)=C1\C(O)C[C@]1(C)C1CC(C)(C)CC1O` (stereo partly drawn), the TGI in the assay on 786-0 renal, with CCRF-CEM leukemia, in the assay on DLD-1 colon, with EKVX NSCLC, in the assay on HOP-92 NSCLC and with M19-MEL melanoma was more than 100 µM each time. For the same compound, the TGI in the assay on MOLT-4 leukemia, with NCI-H226 lung, with NCI-H23 lung, in the assay on SNB-19 CNS and with UO-31 renal was more than 100 µM each time.
For the compound `CC(=O)Nc1ccc(-c2nnc(SCC(=O)Nc3ccccc3Cl)o2)cc1`, the TGI in the assay on 786-0 renal, with CCRF-CEM leukemia, in the assay with DLD-1 colon, in the assay with HCT-15 colon, in the assay with IGROV1 ovarian and in the assay on M19-MEL melanoma was more than 100 µM throughout. Further, the TGI in the assay with MOLT-4 leukemia, in the assay on NCI-H226 lung, in the assay on NCI-H23 lung, in the assay with SNB-19 CNS and with UO-31 renal was more than 100 µM each time.
Turning to `NN/C(=N\S(=O)(=O)c1cc(Cl)c(Oc2ccc([N+](=O)[O-])cc2Cl)c(Cl)c1)Nc1ccc(Cl)cc1`, the TGI came out at 36.8 µM in the assay with 786-0 renal; 37.5 µM in the assay with CCRF-CEM leukemia; 38.4 µM in the assay with DU-145 prostate; 61.2 µM with EKVX NSCLC; 41.7 µM with HCT-15 colon; 38.9 µM with HOP-92 NSCLC. Besides, the TGI in the assay on IGROV1 ovarian came to 42.3 µM; in the assay on MDA-N, 33 µM; in the assay with MOLT-4 leukemia, 85.8 µM; in the assay on NCI-H226 lung it was 33.4 µM; with NCI-H23 lung it was 31.4 µM; in the assay on SNB-19 CNS, 62.4 µM. In the assay on UO-31 renal, this compound yielded a TGI of 32.3 µM.
Regarding `CCC(=O)N(c1ccccc1)C(C)CN1CCC(O)(c2ccccc2)CC1` (stereo not drawn), the TGI in the assay with 786-0 renal, in the assay with CCRF-CEM leukemia, with DU-145 prostate, in the assay on EKVX NSCLC, in the assay on HCT-15 colon and in the assay on HOP-92 NSCLC was more than 100 µM each time. The TGI in the assay on IGROV1 ovarian, in the assay with MDA-N, with MOLT-4 leukemia, with NCI-H226 lung, in the assay on NCI-H23 lung and in the assay with SNB-19 CNS was more than 100 µM in each case. In the assay on UO-31 renal, the TGI is more than 100 µM.

Values taken from PubChem BioAssay (NCI).
